This passage reports remaining activity results from article PMC8286840, “Identifying SARS-CoV-2 antiviral compounds by screening for small molecule inhibitors of Nsp3 papain-like protease” (Biochemical Journal, 2021).

In assay [1] the target is T1, SARS-CoV-2 PLpro (nsp3 1564–1878) (Severe acute respiratory syndrome coronavirus 2, UniProt P0DTD1). In words: biochemical. The arrangement: FRET-quenched peptide (Pro3) cleavage by PLpro, 10 min pre-incubation, slope over 20 min, normalised to no-compound control. The conditions noted are these: low concentration screen, read-out: % of control remaining.
Assay [2] deals with T1, SARS-CoV-2 PLpro (nsp3 1564–1878). In words: biochemical. Further details: FRET-quenched peptide (Pro3) cleavage by PLpro, 10 min pre-incubation, slope over 20 min, normalised to no-compound control. The settings on record: high concentration screen, read-out: % of control remaining.

Structures can show the parent of a compound that is named as a salt. Where two headings read alike, the source gives them in different places. *1 amine or outer side, *2 acyl side, *3 side chain or, on linkers, in order; H or OH if unused. Where a SMILES comes first, the peptide text is derived from it. Side-chain parts run from the residue outwards. [ ]: non-standard residue; d: D form. The star is where a group is joined. Sta = CC(C)C[C@H](N)[C@@H](O)CC(=O)O; Ethylenediamine = C(CN[*:2])N[*:1]; Hyp = O=C(O)[C@@H]1C[C@@H](O)CN1; Phg = N[C@H](C(=O)O)c1ccccc1; Isovaleryl = CC(C)CC(=O)*; CO = O=C([*:1])[*:2]; Bn = c1ccc(C*)cc1

For the molecule `COc1ccnc(C[S+]([O-])c2nc3cc(OC(F)F)ccc3[nH]2)c1OC` (stereo not drawn) [Pantoprazole], the remaining activity at 1.25 µM in assay [1] (Well no.=2091) came to 101%. The remaining activity at 3.75 µM in assay [2] (Well no.=2091) came out at 99.9%.

As for `CC(C)(CO)[C@@H](O)C(=O)NCCC(=O)O` [Pantothenic acid], the remaining activity at 1.25 µM in assay [1] (Well no.=2288) was 90.1%. Also, the remaining activity at 3.75 µM in assay [2] (Well no.=2288) was found to be 92.3%.

Consider `COc1ccc(Cc2nccc3cc(OC)c(OC)cc23)cc1OC` [Papaverine hydrochloride], for which, in assay [1] (Well no.=1144), the remaining activity at 1.25 µM came out at 98.1%. The remaining activity at 3.75 µM in assay [2] (Well no.=1144) worked out at 98.9%.

For `CCc1cccc2c1c(O)c(C(=O)N(CC)c1ccccc1)c(=O)n2C` [Paquinimod], the remaining activity at 1.25 µM in assay [1] (Well no.=8373) was 92.6%. The remaining activity at 3.75 µM in assay [2] (Well no.=8373) was determined as 92.5%.

With `C#CCN(C)Cc1ccccc1` [Pargyline hydrochloride], the remaining activity at 1.25 µM in assay [1] (Well no.=1445) amounted to 99.1%. Besides, in assay [2] (Well no.=1445), the remaining activity at 3.75 µM came to 98.9%.

For the molecule `NC[C@@H]1O[C@H](O[C@H]2[C@@H](O)[C@H](O[C@@H]3[C@@H](O)[C@H](N)C[C@H](N)[C@H]3O[C@H]3O[C@H](CO)[C@@H](O)[C@H](O)[C@H]3N)O[C@@H]2CO)[C@H](N)[C@@H](O)[C@@H]1O` [Paromomycin sulfate], the remaining activity at 1.25 µM in assay [1] (Well no.=1211) is 99.9%. For the same molecule, in assay [2] (Well no.=1211), the remaining activity at 3.75 µM stood at 100%.

As to `Fc1ccc([C@@H]2CCNC[C@H]2COc2ccc3c(c2)OCO3)cc1` [Paroxetine], in assay [1] (Well no.=2093), the remaining activity at 1.25 µM was found to be 103%. Besides, the remaining activity at 3.75 µM in assay [2] (Well no.=2093) was found to be 101%.

With `NCCCC[C@@H]1NC(=O)[C@@H](Cc2c[nH]c3ccccc23)NC(=O)[C@H](c2ccccc2)NC(=O)[C@@H]2C[C@@H](OC(=O)NCCN)CN2C(=O)[C@H](Cc2ccccc2)NC(=O)[C@H](Cc2ccc(OCc3ccccc3)cc2)NC1=O` [Pasireotide (ditrifluoroacetate)] (cyclo([Hyp]([CO-Ethylenediamine])[Phg][dW]KY(Bn)F)), the remaining activity at 1.25 µM in assay [1] (Well no.=7988) came out at 96.1%. Moreover, the remaining activity at 3.75 µM in assay [2] (Well no.=7988) turned out to be 101%.

As to `O=C1C=C2C(=CCOC2O)O1` (stereo not drawn) [Patulin], the remaining activity at 1.25 µM in assay [1] (Well no.=3543) turned out to be 105%. In addition, the remaining activity at 3.75 µM in assay [2] (Well no.=3543) worked out at 103%.

As for `Cc1ccc(Nc2nccc(N(C)c3ccc4c(C)n(C)nc4c3)n2)cc1S(N)(=O)=O` [Pazopanib HCl], the remaining activity at 1.25 µM in assay [1] (Well no.=4613) was 110%. In addition, the remaining activity at 3.75 µM in assay [2] (Well no.=4613) amounted to 107%.

`Cc1ccc(Nc2nccc(N(C)c3ccc4c(C)n(C)nc4c3)n2)cc1S(N)(=O)=O` [Pazopanib]: the remaining activity at 1.25 µM in assay [1] (Well no.=2841) stood at 103%. Further, the remaining activity at 3.75 µM in assay [2] (Well no.=2841) turned out to be 103%.

As for `C[C@H]1COc2c(C3(N)CC3)c(F)cc3c(=O)c(C(=O)O)cn1c23` [Pazufloxacin], the remaining activity at 1.25 µM in assay [1] (Well no.=2095) was 97.7%. Besides, the remaining activity at 3.75 µM in assay [2] (Well no.=2095) amounted to 98.2%.

`OC1c2ccccc2N=C2CCCN21` (stereo not drawn) [Peganole]: in assay [1] (Well no.=3541), the remaining activity at 1.25 µM is 95.9%. For the same molecule, the remaining activity at 3.75 µM in assay [2] (Well no.=3541) was 104%.

As to `Nc1nc2[nH]cc(CCc3ccc(C(=O)N[C@@H](CCC(=O)O)C(=O)O)cc3)c2c(=O)[nH]1` [Pemetrexed (Alimta)], in assay [1] (Well no.=4677), the remaining activity at 1.25 µM is 98.1%. Moreover, the remaining activity at 3.75 µM in assay [2] (Well no.=4677) came out at 98.7%.

Take `Nc1nc2[nH]cc(CCc3ccc(C(=O)N[C@@H](CCC(=O)O)C(=O)O)cc3)c2c(=O)[nH]1` [Pemetrexed (disodium hemipenta hydrate)]: in assay [1] (Well no.=7604), the remaining activity at 1.25 µM came to 95.1%. Also, the remaining activity at 3.75 µM in assay [2] (Well no.=7604) came to 95.6%.

Consider `Nc1nc2[nH]cc(CCc3ccc(C(=O)N[C@@H](CCC(=O)O)C(=O)O)cc3)c2c(=O)[nH]1` [Pemetrexed (disodium)], for which, in assay [1] (Well no.=7500), the remaining activity at 1.25 µM turned out to be 102%. Moreover, the remaining activity at 3.75 µM in assay [2] (Well no.=7500) was determined as 93.5%.

With `Nc1nc2[nH]cc(CCc3ccc(C(=O)N[C@@H](CCC(=O)O)C(=O)O)cc3)c2c(=O)[nH]1` [Pemetrexed Disodium Hydrate], in assay [1] (Well no.=8732), the remaining activity at 1.25 µM was found to be 96.6%. For the same molecule, the remaining activity at 3.75 µM in assay [2] (Well no.=8732) came out at 97.8%.

In the case of `Nc1nc2[nH]cc(CCc3ccc(C(=O)N[C@@H](CCC(=O)O)C(=O)O)cc3)c2c(=O)[nH]1` [Pemetrexed], the remaining activity at 1.25 µM in assay [1] (Well no.=8316) worked out at 103%. Also, in assay [2] (Well no.=8316), the remaining activity at 3.75 µM worked out at 101%.

As for `Cc1cccn2c(=O)c(-c3nnn[nH]3)cnc12` [Pemirolast (potassium)], in assay [1] (Well no.=7611), the remaining activity at 1.25 µM stood at 98.6%. For the same molecule, the remaining activity at 3.75 µM in assay [2] (Well no.=7611) came to 96.7%.

On to `CN1C(C)(C)CCCC1(C)C` [Pempidine tartrate], for which the remaining activity at 1.25 µM in assay [1] (Well no.=1052) was 94%. Also, the remaining activity at 3.75 µM in assay [2] (Well no.=1052) was determined as 95%.

Regarding `Nc1nc(O)c2ncn(CCC(CO)CO)c2n1` [Penciclovir], the remaining activity at 1.25 µM in assay [1] (Well no.=2099) was 97.6%; in assay [1] (Well no.=8002) it was 105%. Also, the remaining activity at 3.75 µM in assay [2] (Well no.=2099) was 98.9%; in assay [2] (Well no.=8002) it was 102%.

Regarding `CCCCCCCCCCCCCCC(=O)O` [Pentadecanoic acid], the figures for the remaining activity at 1.25 µM in assay [1] (Well no.=4588) and in assay [1] (Well no.=7021) were 95% and 110%, respectively. In addition, the remaining activity at 3.75 µM in assay [2] (Well no.=4588) stood at 95.6%; in assay [2] (Well no.=7021) it was 103%.

With `N=C(N)c1ccc(OCCCCCOc2ccc(C(=N)N)cc2)cc1` [Pentamidine HCl], in assay [1] (Well no.=4648), the remaining activity at 1.25 µM stood at 98.3%. Also, the remaining activity at 3.75 µM in assay [2] (Well no.=4648) was 98.1%.

Take `N=C(N)c1ccc(OCCCCCOc2ccc(C(=N)N)cc2)cc1` [Pentamidine isethionate]: the remaining activity at 1.25 µM in assay [1] (Well no.=996) was 101%. Also, the remaining activity at 3.75 µM in assay [2] (Well no.=996) was found to be 101%.

As for `N=C(N)c1ccc(OCCCCCOc2ccc(C(=N)N)cc2)cc1` [Pentamidine], the remaining activity at 1.25 µM in assay [1] (Well no.=1766) worked out at 97.3%. Further, the remaining activity at 3.75 µM in assay [2] (Well no.=1766) amounted to 99.6%.

For the molecule `C[N+]1(CCCCC[N+]2(C)CCCC2)CCCC1` [Pentolinium di[L(+)-tartrate]], in assay [1] (Well no.=810), the remaining activity at 1.25 µM was found to be 96.7%. Also, the remaining activity at 3.75 µM in assay [2] (Well no.=810) was determined as 96.3%.

As to `CC(=O)CCCCn1c(=O)c2c(ncn2C)n(C)c1=O` [Pentoxifylline], the remaining activity at 1.25 µM is 92.7% in assay [1] (Well no.=1046) and 101% in assay [1] (Well no.=2101). Further, the remaining activity at 3.75 µM in assay [2] (Well no.=1046) amounted to 94.8%; in assay [2] (Well no.=2101), 100%.

For `C1CCc2nnnn2CC1` [Pentylenetetrazole], in assay [1] (Well no.=1054), the remaining activity at 1.25 µM worked out at 97.5%. In addition, the remaining activity at 3.75 µM in assay [2] (Well no.=1054) turned out to be 99.6%.

For `CC(C)CC(=O)N[C@H](C(=O)N[C@H](C(=O)N[C@@H](CC(C)C)[C@@H](O)CC(=O)N[C@@H](C)C(=O)N[C@@H](CC(C)C)[C@@H](O)CC(=O)O)C(C)C)C(C)C` [Pepstatin A] (Isovaleryl-VV[Sta]A[Sta]-OH), the remaining activity at 1.25 µM in assay [1] (Well no.=8764) is 91.3%. The remaining activity at 3.75 µM in assay [2] (Well no.=8764) came out at 92.8%.

`CCCN1C[C@H](CSC)C[C@@H]2c3cccc4[nH]cc(c34)C[C@H]21` [Pergolide mesylate]: the remaining activity at 1.25 µM in assay [1] (Well no.=1602) turned out to be 94.9%. The remaining activity at 3.75 µM in assay [2] (Well no.=1602) was determined as 97.1%.
